Measurements published in patent publication US10689377B2 (Mirati Therapeutics, Inc., priority 2017, dated 2020).

These compounds were tested against KRas G12C (Homo sapiens, UniProt P01116, G12C) (assay: Cellular inhibition of KRas G12C measured by Phospho-ERK in NCI-H358 cells). Conditions: pERK(Thr202/Tyr204) normalized with GAPDH, NCI-H358 cells, 3 hours; read-out: IC50.
Assay type: cell-based
Method in brief: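 NCI-H358 cells were allowed to attach for 8-12 hours, then exposed to compounds for 3 hours at 0.5% DMSO final. After formaldehyde fixation and methanol permeabilization, phospho-ERK (Thr202/Tyr204) was detected by in-cell immunofluorescence and normalized to GAPDH; IC50 came from a 4-parameter fit of percent-of-DMSO values.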

KRas G12C, sequence (P01116 1-188 isoform P01116-2 G12C): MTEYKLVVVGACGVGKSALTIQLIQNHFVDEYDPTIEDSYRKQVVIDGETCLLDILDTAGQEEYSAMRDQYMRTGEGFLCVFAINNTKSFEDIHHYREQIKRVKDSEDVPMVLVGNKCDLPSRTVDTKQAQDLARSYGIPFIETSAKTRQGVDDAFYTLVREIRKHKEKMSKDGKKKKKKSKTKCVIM

First: C=CS(=O)(=O)N1CCN(c2nc(OC[C@@H]3CCCN3C)nc3c2CCN(c2cccc(C)c2C)C3)CC1 [Example 343, 7-(2,3-dimethylphenyl)-2-[[(2S)-methylpyrrolidin-2-yl]methoxy]-4-(4-vinylsulfonylpiperazin-1-yl)-6,8-dihydro-5H-pyrido[3,4-d]pyrimidine]
Second: C=CC(=O)N1CCN(c2nc(OC[C@@H]3CCCN3C)nc3c2CCN(c2cccc(C)c2C(F)(F)F)C3)C[C@@H]1CC#N [Example 364, 2-[(2S)-4-[2-[[(2S)-1-methylpyrrolidin-2-yl]methoxy]-7-[3-methyl-2-(trifluoromethyl)phenyl]-6,8-dihydro-5H-pyrido[3,4-d]pyrimidin-4-yl]-1-prop-2-enoyl-piperazin-2-yl]acetonitrile]
The IC50 of the first is higher: greater than 1 µM for the first, 0.0001 to 1 µM for the second.

`C=CC(=O)N1CCN(c2nc(OC[C@H]3CCCN3C)nc3c2CCN(c2cc(O)cc4ccccc24)C3)C[C@@H]1CC#N` [Example 344, 2-[(2S)-4-[7-(3-hydroxy-1-naphthyl)-2-[[(2R)-1-methylpyrrolidin-2-yl]methoxy]-6,8-dihydro-5H-pyrido[3,4-d]pyrimidin-4-yl]-1-prop-2-enoyl-piperazin-2-yl]acetonitrile] and `C=CC(=O)N1CCN(c2nc(OC[C@@H]3CCN(C)C3)nc3c2CCN(c2cc(O)cc4ccccc24)C3)C[C@@H]1CC#N` [Example 350, 2-((S)-1-acryloyl-4-(7-(3-hydroxynaphthalen-1-yl)-2-(((R)-1-methylpyrrolidin-3-yl)methoxy)-5,6,7,8-tetrahydropyrido[3,4-d]pyrimidin-4-yl)piperazin-2-yl)acetonitrile] fall in the same range of IC50: 0.0001 to 1 µM for the first, 0.0001 to 1 µM for the second.

First: C=CC(=O)N1CCN(c2nc(OC[C@@H]3CCCN3C)nc3c2CCN(c2ccncc2C)C3)C[C@@H]1CC#N [Example 345, 2-[(2S)-4-[7-(3-methyl-4-pyridyl)-2-[[(2S)-1-methylpyrrolidin-2-yl]methoxy]-6,8-dihydro-5H-pyrido[3,4-d]pyrimidin-4-yl]-1-prop-2-enoyl-piperazin-2-yl]acetonitrile]
Second: C=CC(=O)N1CCN(c2nc(OC[C@@H]3CCCN3C)nc3c2CCN(c2cnccc2C2CC2)C3)C[C@@H]1CC#N [Example 352, 2-[(2S)-4-[7-(4-cyclopropyl-3-pyridyl)-2-[[(2S)-1-methylpyrrolidin-2-yl]methoxy]-6,8-dihydro-5H-pyrido[3,4-d]pyrimidin-4-yl]-1-prop-2-enoyl-piperazin-2-yl]acetonitrile]
The IC50 of the first is higher: greater than 1 µM for the first, 0.0001 to 1 µM for the second. The second is the more potent here.

`CN1CCC[C@H]1COc1nc2c(c(N3CCN(C(=O)/C=C/CN4CCOCC4)[C@@H](CC#N)C3)n1)CCN(c1cccc(Cl)c1C(F)(F)F)C2` [Example 346, 2-[(2S)-4-[7-[3-chloro-2-(trifluoromethyl)phenyl]-2-[[(2S)-1-methylpyrrolidin-2-yl]methoxy]-6,8-dihydro-5H-pyrido[3,4-d]pyrimidin-4-yl]-1-[(E)-4-morpholinobut-2-enoyl]piperazin-2-yl]acetonitrile] and `CN1CCC[C@H]1COc1nc2c(c(N3CCN(C(=O)/C=C/CN4CCCC4)[C@@H](CC#N)C3)n1)CCN(c1cccc(Cl)c1C(F)(F)F)C2` [Example 347, 2-[(2S)-4-[7-[3-chloro-2-(trifluoromethyl)phenyl]-2-[[(2S)-1-methylpyrrolidin-2-yl]methoxy]-6,8-dihydro-5H-pyrido[3,4-d]pyrimidin-4-yl]-1-[(E)-4-pyrrolidin-1-ylbut-2-enoyl]piperazin-2-yl]acetonitrile] fall in the same range of IC50: 0.0001 to 1 µM for the first, 0.0001 to 1 µM for the second.

`C=CC(=O)N1CCN(c2nc(O[C@H](C)[C@H]3CCCN3C)nc3c2CCN(c2cc(O)cc4ccccc24)C3)C[C@@H]1CC#N` [Example 348, 2-[(2S)-4-[7-(3-hydroxy-1-naphthyl)-2-[(1R)-1-[(2R)-1-methylpyrrolidin-2-yl]ethoxy]-6,8-dihydro-5H-pyrido[3,4-d]pyrimidin-4-yl]-1-prop-2-enoyl-piperazin-2-yl]acetonitrile] and `C=CC(=O)N1CCN(c2nc(OC[C@@H]3C[C@@H](F)CN3C)nc3c2CCN(c2cc(O)cc4ccccc24)C3)CC1` [Example 357, 1-[4-[2-[[(2S,4R)-4-fluoro-1-methyl-pyrrolidin-2-yl]methoxy]-7-(3-hydroxy-1-naphthyl)-6,8-dihydro-5H-pyrido[3,4-d]pyrimidin-4-yl]piperazin-1-yl]prop-2-en-1-one] fall in the same range of IC50: 0.0001 to 1 µM for the first, 0.0001 to 1 µM for the second.

`C=CC(=O)N1CCN(c2nc(OC[C@@H]3CCCN3C)nc3c2CCN(c2c(C)ccc(F)c2C)C3)C[C@@H]1CC#N` [Example 349, 2-((S)-1-acryloyl-4-(7-(3-fluoro-2,6-dimethylphenyl)-2-(((S)-1-methylpyrrolidin-2-yl)methoxy)-5,6,7,8-tetrahydropyrido[3,4-d]pyrimidin-4-yl)piperazin-2-yl)acetonitrile] and `C=CC(=O)N1CCN(c2nc(OC[C@@H]3CCCN3C)nc3c2CCN(c2cccc4cccc(CC)c24)C3)C[C@@H]1CC#N` [Example 360, 2-[(2S)-4-[7-(8-ethyl-1-naphthyl)-2-[[(2S)-1-methylpyrrolidin-2-yl]methoxy]-6,8-dihydro-5H-pyrido[3,4-d]pyrimidin-4-yl]-1-prop-2-enoyl-piperazin-2-yl]acetonitrile] fall in the same range of IC50: 0.0001 to 1 µM for the first, 0.0001 to 1 µM for the second.

`C=CC(=O)N1CCN(c2nc(OCc3ncc[nH]3)nc3c2CCN(c2cccc4ccccc24)C3)C[C@@H]1CC#N` [Example 351, 2-[(2S)-4-[2-(1H-imidazol-2-ylmethoxy)-7-(1-naphthyl)-6,8-dihydro-5H-pyrido[3,4-d]pyrimidin-4-yl]-1-prop-2-enoyl-piperazin-2-yl]acetonitrile] and `C#CC[C@H]1CN(c2nc(OC[C@@H]3CCCN3C)nc3c2CCN(c2cccc4ccccc24)C3)CCN1C(=O)C=C` [Example 358, 1-[(2S)-4-[2-[[(2S)-1-methylpyrrolidin-2-yl]methoxy]-7-(1-naphthyl)-6,8-dihydro-5H-pyrido[3,4-d]pyrimidin-4-yl]-2-prop-2-ynyl-piperazin-1-yl]prop-2-en-1-one] fall in the same range of IC50: 0.0001 to 1 µM for the first, 0.0001 to 1 µM for the second.

`C=CC(=O)N1CCN(c2nc(OC[C@@H]3CCCN3C)nc3c2CCN(c2cccc4ccccc24)C3)[C@H](C)C1` [Example 353, 1-[(3R)-3-methyl-4-[2-[[(2S)-1-methylpyrrolidin-2-yl]methoxy]-7-(1-naphthyl)-6,8-dihydro-5H-pyrido[3,4-d]pyrimidin-4-yl]piperazin-1-yl]prop-2-en-1-one] and `C=CC(=O)N1CCN(c2nc(OC[C@@H]3CCCN3C)nc3c2CCN(c2cccc4ccccc24)C3)C(C)(C)C1` [Example 354, 1-[3,3-dimethyl-4-[2-[[(2S)-1-methylpyrrolidin-2-yl]methoxy]-7-(1-naphthyl)-6,8-dihydro-5H-pyrido[3,4-d]pyrimidin-4-yl]piperazin-1-yl]prop-2-en-1-one] cannot be ordered by IC50: greater than 1 µM for the first, greater than 1 µM for the second.

`C=CC(=O)N1CCN(c2nc(OC[C@@H]3C[C@@H](F)CN3C)nc3c2CCN(c2cc(OC)cc4ccccc24)C3)CC1` [Example 355, 1-[4-[2-[[(2S,4R)-4-fluoro-1-methyl-pyrrolidin-2-yl]methoxy]-7-(3-methoxy-1-naphthyl)-6,8-dihydro-5H-pyrido[3,4-d]pyrimidin-4-yl]piperazin-1-yl]prop-2-en-1-one] and `C=CC(=O)N1CCN(c2nc(OC[C@@H]3C[C@@H](OC)CN3C)nc3c2CCN(c2cc(OC)cc4ccccc24)C3)CC1` [Example 356, 1-[4-[2-[[(2S,4R)-4-methoxy-1-methyl-pyrrolidin-2-yl]methoxy]-7-(3-methoxy-1-naphthyl)-6,8-dihydro-5H-pyrido[3,4-d]pyrimidin-4-yl]piperazin-1-yl]prop-2-en-1-one] cannot be ordered by IC50: greater than 1 µM for the first, greater than 1 µM for the second.

`C=CC(=O)N1CCN(c2nc(OC[C@@H]3CCN(C)C3)nc3c2CCN(c2cccc4cccc(Cl)c24)C3)C[C@@H]1CC#N` [Example 361, 2-[(2S)-4-[7-(8-chloro-1-naphthyl)-2-[[(3R)-1-methylpyrrolidin-3-yl]methoxy]-6,8-dihydro-5H-pyrido[3,4-d]pyrimidin-4-yl]-1-prop-2-enoyl-piperazin-2-yl]acetonitrile] and `C=CC(=O)N1CCN(c2nc(OC[C@H]3CN(C)CCO3)nc3c2CCN(c2cccc4cccc(Cl)c24)C3)C[C@@H]1CC#N` [Example 363, 2-[(2S)-4-[7-(8-chloro-1-naphthyl)-2-[[(2R)-4-methylmorpholin-2-yl]methoxy]-6,8-dihydro-5H-pyrido[3,4-d]pyrimidin-4-yl]-1-prop-2-enoyl-piperazin-2-yl]acetonitrile] fall in the same range of IC50: 0.0001 to 1 µM for the first, 0.0001 to 1 µM for the second.

`C=CC(=O)N1CCN(c2nc(OCCN3CCCCC3)nc3c2CCN(c2cccc4cccc(Cl)c24)C3)C[C@@H]1CC#N` [Example 362, 2-[(2S)-4-[7-(8-chloro-1-naphthyl)-2-[2-(1-piperidyl)ethoxy]-6,8-dihydro-5H-pyrido[3,4-d]pyrimidin-4-yl]-1-prop-2-enoyl-piperazin-2-yl]acetonitrile] and `C=CC(=O)N1CCN(c2nc(OCCCN3C[C@@H]4C[C@H]3CO4)nc3c2CCN(c2cccc4cccc(Cl)c24)C3)C[C@@H]1CC#N` [Example 365, 2-[(2S)-4-[7-(8-chloro-1-naphthyl)-2-[3-[(1S,4S)-2-oxa-5-azabicyclo[2.2.1]heptan-5-yl]propoxy]-6,8-dihydro-5H-pyrido[3,4-d]pyrimidin-4-yl]-1-prop-2-enoyl-piperazin-2-yl]acetonitrile] fall in the same range of IC50: 0.0001 to 1 µM for the first, 0.0001 to 1 µM for the second.

First: C=CC(=O)N1CCN(c2nc(OC[C@@H]3CC(F)(F)CN3C)nc3c2CCN(c2cccc4cccc(Cl)c24)C3)C[C@@H]1CC#N [Example 366, 2-[(2S)-4-[7-(8-chloro-1-naphthyl)-2-[[(2S)-4,4-difluoro-1-methyl-pyrrolidin-2-yl]methoxy]-6,8-dihydro-5H-pyrido[3,4-d]pyrimidin-4-yl]-1-prop-2-enoyl-piperazin-2-yl]acetonitrile]
Second: C=CC(=O)N1C[C@H](C)N(c2nc(OC[C@@H]3CCCN3C)nc3c2CCN(c2cccc4ccccc24)C3)C[C@@H]1CC#N [Example 368, 2-((2S,5S)-1-acryloyl-5-methyl-4-(2-(((S)-1-methylpyrrolidin-2-yl)methoxy)-7-(naphthalen-1-yl)-5,6,7,8-tetrahydropyrido[3,4-d]pyrimidin-4-yl)piperazin-2-yl)acetonitrile]
The IC50 of the first is lower: 0.0001 to 1 µM for the first, greater than 1 µM for the second.
